Test system: transgenic T2 soybean plants
Assay: Soybean greenhouse spray test, T2 plants at V2-V3 stage, injury 0-9 point scale 1 or 2 weeks after treatment (Tables 7C-7E)
Type: in vivo, Glycine max
Details: 2 week after treatment
Protocol: Soybean cv Jake was transformed as previously described by Siminszky et al., Phytochem Rev. 5:445-458 (2006). After regeneration, transformants were transplanted to soil in small pots, placed in growth chambers (16 hr day/8 hr night; 25° C. day/23° C. night; 65% relative humidity; 130-150 microE m-2 s-1) and subsequently tested for the presence of the T-DNA via Taqman analysis. After a few weeks, healthy, transgenic positive, single copy events were transplanted to larger pots and allowed to grow in the growth chamber. An optimal shoot for cutting was about 3-4 inches tall, with at least two nodes present. Each cutting was taken from the original transformant (mother plant) and dipped into rooting hormone powder (indole-3-butyric acid, IBA). The cutting was then placed in oasis wedges inside a bio-dome. The mother plant was taken to maturity in the greenhouse and harvested for seed. Wild type cuttings were also taken simultaneously to serve as negative controls. The cuttings were kept in the bio-dome for 5-7 days and then transplanted to 3 inch pots and then acclimated in the growth chamber for two more days. […] Other herbicides, such as AHAS (ALS—Acetolactate Synthase) inhibiting herbicides were also tested in a similar fashion for confirming cross resistance to other modes of action: Tritosulfuron, Florasulam, Metsulfuron, Rimsulfuron. Herbicide injury evaluations were taken at 2, 7, 14 and 21 days after treatment.
• 0 No Injury • 1 Minimal injury, only a few patches of leaf injury or chlorosis. • 2 Minimal injury with slightly stronger chlorosis. Overall growth points remain undamaged. • 3 Slightly stronger injury on secondary leaf tissue, but primary leaf and growth points are still undamaged. • 4 Overall plant morphology is slightly different, some chlorosis and necrosis in secondary growth points and leaf tissue. Stems are intact. Regrowth is highly probable within 1 week. • 5 Overall plant morphology is clearly different, some chlorosis and necrosis on a few leaves and growth points, but primary growth point is intact. Stem tissue is still green. Regrowth is highly probably within 1 week. • 6 Strong injury can be seen on the new leaflet growth. Plant has a high probability to survive only through regrowth at different growth points. Most of the leaves are chlorotic/necrotic but stem tissue is still green. May have regrowth but with noticeable injured appearance. • 7 Most of the active growth points are necrotic. There may be a single growth point that could survive and may be partially chlorotic or green and partially necrotic. Two leaves may still be chlorotic with some green; the rest of the plant including stem is necrotic. • 8 Plant will likely die, and all growth points are necrotic. One leaf may still be chlorotic with some green. The remainder of the plant is necrotic. • 9 Plant is dead. • * Not tested

SMILES: COc1ncc(F)c2nc(S(=O)(=O)Nc3c(F)cccc3F)nn12 [Flurasulam]
- injury on a 0-9 point scale (Bradi_1g07930.1 (Event 1), 0.156 g ai/ha): 0.3
- injury on a 0-9 point scale (Bradi_1g07930.1 (Event 1), 0.3125 g ai/ha): 0.5
- injury on a 0-9 point scale (Bradi_1g07930.1 (Event 1), 0.625 g ai/ha): 2.5
- injury on a 0-9 point scale (Bradi_1g07930.1 (Event 1), Flurasulam 1.25 g ai/ha): 3.0
- injury on a 0-9 point scale (Bradi_1g07930.1 (Event 1), Flurasulam 2.5 g ai/ha): 1.7
- injury on a 0-9 point scale (Bradi_1g07930.1 (Event 1), Flurasulam 5 g ai/ha): 3.3
- injury on a 0-9 point scale (R128A_F420V (Event 1), 0.156 g ai/ha): 0.0
- injury on a 0-9 point scale (R128A_F420V (Event 1), 0.3125 g ai/ha): 3.3
- injury on a 0-9 point scale (R128A_F420V (Event 1), 0.625 g ai/ha): 3.5
- injury on a 0-9 point scale (R128A_F420V (Event 1), Flurasulam 1.25 g ai/ha): 4.5
- injury on a 0-9 point scale (R128A_F420V (Event 1), Flurasulam 2.5 g ai/ha): 6.8
- injury on a 0-9 point scale (R128A_F420V (Event 1), Flurasulam 5 g ai/ha): 6.5
- injury on a 0-9 point scale (R128A_F420V (Event 2), 0.156 g ai/ha): 1.0
- injury on a 0-9 point scale (R128A_F420V (Event 2), 0.3125 g ai/ha): 1.0
- injury on a 0-9 point scale (R128A_F420V (Event 2), 0.625 g ai/ha): 3.5
- injury on a 0-9 point scale (R128A_F420V (Event 2), Flurasulam 1.25 g ai/ha): 5.0
- injury on a 0-9 point scale (R128A_F420V (Event 2), Flurasulam 2.5 g ai/ha): 6.0
- injury on a 0-9 point scale (R128A_F420V (Event 2), Flurasulam 5 g ai/ha): 6.0
- injury on a 0-9 point scale (R128A_F420V + Bradi_1g07930.1 (Event 1), 0.156 g ai/ha): 1.5
- injury on a 0-9 point scale (R128A_F420V + Bradi_1g07930.1 (Event 1), 0.3125 g ai/ha): 2.3
- injury on a 0-9 point scale (R128A_F420V + Bradi_1g07930.1 (Event 1), 0.625 g ai/ha): 3.0
- injury on a 0-9 point scale (R128A_F420V + Bradi_1g07930.1 (Event 1), Flurasulam 1.25 g ai/ha): 3.5
- injury on a 0-9 point scale (R128A_F420V + Bradi_1g07930.1 (Event 1), Flurasulam 2.5 g ai/ha): 3.3
- injury on a 0-9 point scale (R128A_F420V + Bradi_1g07930.1 (Event 1), Flurasulam 5 g ai/ha): 2.5
- injury on a 0-9 point scale (R128A_F420V + Bradi_1g07930.1 (Event 2), 0.156 g ai/ha): 3.3
- injury on a 0-9 point scale (R128A_F420V + Bradi_1g07930.1 (Event 2), 0.3125 g ai/ha): 3.0
- injury on a 0-9 point scale (R128A_F420V + Bradi_1g07930.1 (Event 2), 0.625 g ai/ha): 3.0
- injury on a 0-9 point scale (R128A_F420V + Bradi_1g07930.1 (Event 2), Flurasulam 1.25 g ai/ha): 3.5
- injury on a 0-9 point scale (R128A_F420V + Bradi_1g07930.1 (Event 2), Flurasulam 2.5 g ai/ha): 3.0
- injury on a 0-9 point scale (R128A_F420V + Bradi_1g07930.1 (Event 2), Flurasulam 5 g ai/ha): 3.5
- injury on a 0-9 point scale (wild type, 0.156 g ai/ha): 0.3
- injury on a 0-9 point scale (wild type, 0.3125 g ai/ha): 3.0
- injury on a 0-9 point scale (wild type, 0.625 g ai/ha): 4.0
- injury on a 0-9 point scale (wild type, Flurasulam 1.25 g ai/ha): 5.5
- injury on a 0-9 point scale (wild type, Flurasulam 2.5 g ai/ha): 6.0
- injury on a 0-9 point scale (wild type, Flurasulam 5 g ai/ha): 7.5

SMILES: COc1nc(NC(=O)NS(=O)(=O)c2ccccc2C(F)(F)F)nc(C(F)(F)F)n1 [Tritosulfuron]
- injury on a 0-9 point scale (Bradi_1g07930.1 (Event 1), 4.375 g ai/ha): 1.5
- injury on a 0-9 point scale (Bradi_1g07930.1 (Event 1), 8.75 g ai/ha): 0.5
- injury on a 0-9 point scale (Bradi_1g07930.1 (Event 1), 17.5 g ai/ha): 1.7
- injury on a 0-9 point scale (Bradi_1g07930.1 (Event 1), 35 g ai/ha): 2.3
- injury on a 0-9 point scale (Bradi_1g07930.1 (Event 1), 70 g ai/ha): 1.5
- injury on a 0-9 point scale (Bradi_1g07930.1 (Event 1), 140 g ai/ha): 0.3
- injury on a 0-9 point scale (R128A_F420V (Event 1), 4.375 g ai/ha): 5.3
- injury on a 0-9 point scale (R128A_F420V (Event 1), 8.75 g ai/ha): 6.0
- injury on a 0-9 point scale (R128A_F420V (Event 1), 17.5 g ai/ha): 7.0
- injury on a 0-9 point scale (R128A_F420V (Event 1), 35 g ai/ha): 7.0
- injury on a 0-9 point scale (R128A_F420V (Event 1), 70 g ai/ha): 7.0
- injury on a 0-9 point scale (R128A_F420V (Event 1), 140 g ai/ha): 6.5
- injury on a 0-9 point scale (R128A_F420V (Event 2), 4.375 g ai/ha): 6.0
- injury on a 0-9 point scale (R128A_F420V (Event 2), 8.75 g ai/ha): 6.5
- injury on a 0-9 point scale (R128A_F420V (Event 2), 17.5 g ai/ha): 7.0
- injury on a 0-9 point scale (R128A_F420V (Event 2), 35 g ai/ha): 7.0
- injury on a 0-9 point scale (R128A_F420V (Event 2), 70 g ai/ha): 7.0
- injury on a 0-9 point scale (R128A_F420V (Event 2), 140 g ai/ha): 8.0
- injury on a 0-9 point scale (R128A_F420V + Bradi_1g07930.1 (Event 1), 4.375 g ai/ha): 0.3
- injury on a 0-9 point scale (R128A_F420V + Bradi_1g07930.1 (Event 1), 8.75 g ai/ha): 0.3
- injury on a 0-9 point scale (R128A_F420V + Bradi_1g07930.1 (Event 1), 17.5 g ai/ha): 1.5
- injury on a 0-9 point scale (R128A_F420V + Bradi_1g07930.1 (Event 1), 35 g ai/ha): 2.0
- injury on a 0-9 point scale (R128A_F420V + Bradi_1g07930.1 (Event 1), 70 g ai/ha): 2.7
- injury on a 0-9 point scale (R128A_F420V + Bradi_1g07930.1 (Event 1), 140 g ai/ha): 1.3
- injury on a 0-9 point scale (R128A_F420V + Bradi_1g07930.1 (Event 2), 4.375 g ai/ha): 1.0
- injury on a 0-9 point scale (R128A_F420V + Bradi_1g07930.1 (Event 2), 8.75 g ai/ha): 2.3
- injury on a 0-9 point scale (R128A_F420V + Bradi_1g07930.1 (Event 2), 17.5 g ai/ha): 1.5
- injury on a 0-9 point scale (R128A_F420V + Bradi_1g07930.1 (Event 2), 35 g ai/ha): 1.0
- injury on a 0-9 point scale (R128A_F420V + Bradi_1g07930.1 (Event 2), 70 g ai/ha): 3.0
- injury on a 0-9 point scale (R128A_F420V + Bradi_1g07930.1 (Event 2), 140 g ai/ha): 3.0
- injury on a 0-9 point scale (wild type, 4.375 g ai/ha): 8.0
- injury on a 0-9 point scale (wild type, 8.75 g ai/ha): 8.0
- injury on a 0-9 point scale (wild type, 17.5 g ai/ha): 8.0
- injury on a 0-9 point scale (wild type, 35 g ai/ha): 8.3
- injury on a 0-9 point scale (wild type, 70 g ai/ha): 8.3
- injury on a 0-9 point scale (wild type, 140 g ai/ha): 8.3

— patent US10968462B2, “Plants having increased tolerance to herbicides” (BASF AGRO B.V., priority 2013, dated 2021)
